Target: T1, Uracil phosphoribosyltransferase (Escherichia coli (strain K12), UniProt P0A8F0)
T1 sequence (P0A8F0 whole entry): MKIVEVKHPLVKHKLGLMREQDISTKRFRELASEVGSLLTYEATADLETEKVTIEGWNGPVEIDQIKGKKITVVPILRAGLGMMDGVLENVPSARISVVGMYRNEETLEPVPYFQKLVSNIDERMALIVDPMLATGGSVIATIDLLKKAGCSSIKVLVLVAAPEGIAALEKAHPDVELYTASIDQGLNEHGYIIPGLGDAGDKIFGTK
Assay: Inhibition of Escherichia coli K-12 MTCC 1302 UPRT activity by spectrophotometry

O=c1[nH]cc(F)c(=O)[nH]1 [FLUOROURACIL]
Ki: 13 µM

Reference: ChEMBL document CHEMBL3044650, “Interaction studies of E. coli uracil phosphoribosyltransferase with 5-fluorouracil for potent anti cancer activity” (Med Chem Res, 2012)
